A word on the inhibition: it is the share of the control response that was lost under treatment. The Ki is a measure of affinity in units of concentration, obtained from inhibition or displacement. Usually Cmax stands for the highest concentration seen after dosing.

Data on one compound can be found in PMC5529018, “Discovery of novel brain permeable and G protein-biased beta-1 adrenergic receptor partial agonists for the treatment of neurocognitive disorders” (PLoS ONE, 2017).

Data set [1] deals with LPS-induced TNFα production in primary microglia. Kind of data set: In vitro primary microglia TNFα assay. In kind it is cell-based, Sprague Dawley rat. The conditions noted are these: Rattus norvegicus, 10 μM compound, LPS 10 ng/ml, 4 hrs, ELISA, read-out: inhibition of LPS-induced TNFα production. From the text: Mixed glial cells were obtained from the cerebral cortex of Sprague Dawley rat pups at postnatal days 1–3. Briefly, neonates were euthanized by decapitation and their brain tissues were collected for cortex isolation. The isolated cortex was then trypsinized, triturated, and placed into tissue culture flasks in DMEM supplemented with 10% fetal bovine serum and 1% Penicillin/Streptomycin. After 10 days in vitro, microglia were harvested by gentle shaking of the growth flask, plated in a 96 well plate at a density of 30,000 cells/well, and incubated at 37°C overnight.
(In general: An ELISA detects its analyte on a solid surface through an enzyme-linked reagent.)

In a further data set the target is D3 dopamine receptor (Homo sapiens, UniProt P35462). Kind of data set: Radioligand binding D3. The settings on record: S2 Table; hot ligand [3H]N-Methylspiperone; read-out: Binding Affinity Ki.
The next data set deals with 5-HT 2A (Homo sapiens, UniProt P28223). Kind of data set: Radioligand binding 5-HT 2A. The settings on record: S2 Table; hot ligand [3H]Ketanserin; read-out: Binding Affinity Ki.
Another data set deals with ADR- Alpha 1B (Homo sapiens, UniProt P35368). As to the kind of experiment: Radioligand binding ADR Alpha 1B. The settings on record: S2 Table; hot ligand [3H] Prazosin; read-out: Binding Affinity Ki.
The next data set has as its target 5-HT 1D (Homo sapiens, UniProt P28221). Kind of data set: Radioligand binding 5-HT 1D. The settings on record: S2 Table; hot ligand [3H]GR125743; read-out: Binding Affinity Ki.
In data set [2] the test system is LPS-induced TNFα response. Kind of data set: In vivo LPS assay. More on the design: species or system C57Bl/6J mice. The settings on record: 90 min post-LPS. The method, then: ; subcutaneous; […]; intraperitoneal; n = 4) or vehicle (5% DMSO/20%PEG400/water; intraperitoneal; n = 12) 15 min prior to LPS (50 ug/kg; intraperitoneal). A control group was injected with vehicle 15 minutes prior to saline (n = 18). Following injections, mice were single-housed. At 90 min post-LPS/saline, mice were deeply anesthetized with isoflurane and blood was collected from the right ventricle via cardiac puncture (23 g needle) into lithium heparin-containing vials (BD microtainer plasma tubes). Subsequently, brains were collected after perfusion with phosphate-buffered saline. Plasma was separated by centrifugation (11,000 rpm for 3 minutes) within 60 min of collection and stored at -80°C until analysis. The concentration of TNFα in the collected plasma was measured by ELISA (Invitrogen, KMC3012) according to the manufacturer’s instruction. The LPS-induced inflammatory response in the CNS was assessed by measuring mRNA expression for genes related to neuroimmune activation in brain tissue according to the previously reported method. Briefly, total RNA was extracted from hippocampus containing coronal sections using the RNeasy Lipid Tissue Mini Kit (Qiagen), and transcribed into cDNA (Superscript III, Invitrogen). PCR was performed in duplicate using TaqMan gene expression assays, TNFα (Mm00443258_m1), IL1b (Mm00434228_m1), IL6 (Mm00446190_m1), and glyceraldehyde-3-phosphate dehydrogenase (GAPDH; Mm99999915_g1). Fold changes of expression relative to control were determined after normalization to GAPDH. Relative quantification and fold change were calculated by the comparative CT method. Brain uptake of STD-101-D1 was determined in brain tissue. […]

For the next data set, the target named is ADR - Alpha 2B (Homo sapiens, UniProt P18089). As to the kind of experiment: Radioligand binding ADR Alpha 2B. The conditions noted are these: S2 Table; hot ligand [3H] Rauwolscine; read-out: Binding Affinity Ki.
Data set [3] can be described thus: Pharmacokinetic study 2, 20-min post-dose collection. The settings on record: Sprague-Dawley, brain, rat, single administration. In kind it is in vivo, Sprague-Dawley rats. From the text:
(§1) Two cohorts of Sprague-Dawley rats were used in two independent studies. All animals were fasted overnight before the experiment with free access to water. In study 1, a total of 18 rats were used for a 4 hr time course pharmacokinetic (PK) study. Rats were anesthetized with 3% isoflurane and catheters were implanted into the jugular and/or portal veins for compound administration and/or blood sampling at 1 to 2 days prior to the experiments as previously described. […] Four hours post-dose, rats were deeply anesthetized with isoflurane and blood samples were collected by cardiac puncture. In study 2, a total of 18 rats were used for a 20 min post-dose collection study. […] At 20 min post-dose, rats were deeply anesthetized with isoflurane and blood samples were collected by cardiac puncture. Brains were collected after perfusion with phosphate buffered saline. All plasma samples were immediately separated after collection by centrifugation (11,000 rpm for 3 minutes) and stored at −80°C until analysis. […] Tulobuterol was used as the internal standard. The flow rate was set to 0.45 ml/min. Column temperature was 25°C. […] The injection volume was 20 μl. The mass spectrometer was operated in the positive mode with multiple-reaction monitoring (MRM). […] Mobile phase A consisted of 10 mM ammonium acetate and 0.1% formic acid in LCMS grade water. Mobile phase B consisted of 10 mM ammonium acetate and 0.1% formic acid in LCMS grade acetonitrile:water 90:10% (v/v). […] Five μl of the extracted samples were injected. […] Data acquisition and analysis were performed using the Analyst 1.6.1 software (AB SCIEX, CA).

A further data set addresses ADR - Alpha 1D (Homo sapiens, UniProt P25100). Kind of data set: Radioligand binding ADR Alpha 1D. The settings on record: S2 Table; hot ligand [3H] Prazosin; read-out: Binding Affinity Ki.
The next data set concerns the target 5-HT 1A (Homo sapiens, UniProt P08908). Kind of data set: Radioligand binding 5-HT 1A. The settings on record: S2 Table; hot ligand [3H]8-OH-DPAT; read-out: Binding Affinity Ki.
The next data set has as its target 5-HT6 (Homo sapiens, UniProt P50406). Kind of data set: Radioligand binding 5-HT6. The conditions noted are these: S2 Table; hot ligand [3H]LSD; read-out: Binding Affinity Ki.
The target of another data set is Sigma 2 receptor (Homo sapiens, UniProt Q5BJF2). As to the kind of experiment: Radioligand binding Sigma 2 receptor. The settings on record: S2 Table; hot ligand [3H]DTG; read-out: Binding Affinity Ki.
The target of another data set is Sigma 1 receptor (Homo sapiens, UniProt Q99720). As to the kind of experiment: Radioligand binding Sigma 1 receptor. The settings on record: S2 Table; hot ligand [3H]Pentazocine(+); read-out: Binding Affinity Ki.
Data set [4] in a line: Pharmacokinetic study 1, 4-hr time course. The class given is in vivo, Sprague-Dawley rats. The settings on record: rat; for AUCinf / Cmax: 10 mg/kg PO.
Excerpt: as §1

The next data set addresses 5-HT 2C (Homo sapiens, UniProt P28335). Kind of data set: Radioligand binding 5-HT 2C. The conditions noted are these: S2 Table; hot ligand [3H]Mesulergine; read-out: Binding Affinity Ki.

Chain of 5-HT 1D (P28221 whole entry, species assumed): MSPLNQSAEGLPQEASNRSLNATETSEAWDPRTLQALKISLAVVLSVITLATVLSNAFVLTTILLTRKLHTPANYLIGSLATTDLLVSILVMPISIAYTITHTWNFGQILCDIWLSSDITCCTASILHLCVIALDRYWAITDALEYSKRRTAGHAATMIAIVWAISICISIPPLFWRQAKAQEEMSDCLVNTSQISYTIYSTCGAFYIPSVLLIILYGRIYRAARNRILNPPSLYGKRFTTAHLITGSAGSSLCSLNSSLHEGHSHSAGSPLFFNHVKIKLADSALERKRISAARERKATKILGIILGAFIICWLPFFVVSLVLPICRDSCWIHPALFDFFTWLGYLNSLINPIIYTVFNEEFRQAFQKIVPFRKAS
Chain of Sigma 1 receptor (Q99720 whole entry, species assumed): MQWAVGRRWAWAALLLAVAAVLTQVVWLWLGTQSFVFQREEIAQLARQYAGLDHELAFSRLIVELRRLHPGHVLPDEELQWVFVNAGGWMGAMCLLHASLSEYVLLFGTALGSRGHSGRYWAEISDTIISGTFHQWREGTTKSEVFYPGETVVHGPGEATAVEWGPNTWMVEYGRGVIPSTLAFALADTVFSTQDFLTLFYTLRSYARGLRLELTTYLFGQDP
Chain of 5-HT6 (P50406 whole entry, species assumed): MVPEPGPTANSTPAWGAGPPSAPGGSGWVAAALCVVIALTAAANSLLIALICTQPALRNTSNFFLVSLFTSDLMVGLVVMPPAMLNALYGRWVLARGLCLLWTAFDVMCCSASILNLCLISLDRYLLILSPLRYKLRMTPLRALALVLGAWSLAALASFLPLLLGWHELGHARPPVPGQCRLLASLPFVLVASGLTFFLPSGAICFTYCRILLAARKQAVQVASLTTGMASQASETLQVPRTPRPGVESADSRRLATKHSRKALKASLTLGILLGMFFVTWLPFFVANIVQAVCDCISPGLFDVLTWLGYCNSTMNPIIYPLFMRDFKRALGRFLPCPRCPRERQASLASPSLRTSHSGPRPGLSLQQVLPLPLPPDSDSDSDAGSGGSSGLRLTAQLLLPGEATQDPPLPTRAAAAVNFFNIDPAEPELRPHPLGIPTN
Chain of D3 dopamine receptor (P35462 whole entry): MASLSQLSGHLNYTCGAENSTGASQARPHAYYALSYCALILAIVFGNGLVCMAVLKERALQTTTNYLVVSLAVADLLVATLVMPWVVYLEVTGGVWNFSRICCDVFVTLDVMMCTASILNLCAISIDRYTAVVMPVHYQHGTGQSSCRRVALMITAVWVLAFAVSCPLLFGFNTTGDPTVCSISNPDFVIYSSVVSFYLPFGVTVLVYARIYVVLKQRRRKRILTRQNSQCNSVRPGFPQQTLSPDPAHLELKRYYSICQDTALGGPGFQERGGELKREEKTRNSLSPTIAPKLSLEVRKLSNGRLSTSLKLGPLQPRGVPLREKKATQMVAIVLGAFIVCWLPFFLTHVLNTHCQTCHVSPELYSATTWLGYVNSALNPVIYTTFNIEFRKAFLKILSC
Chain of Sigma 2 receptor (Q5BJF2 whole entry, species assumed): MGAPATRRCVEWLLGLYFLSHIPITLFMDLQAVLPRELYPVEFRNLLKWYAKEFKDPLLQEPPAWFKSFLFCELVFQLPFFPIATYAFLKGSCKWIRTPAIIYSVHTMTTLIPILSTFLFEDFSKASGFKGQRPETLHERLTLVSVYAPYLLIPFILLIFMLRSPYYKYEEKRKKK
Chain of ADR - Alpha 2B (P18089 whole entry): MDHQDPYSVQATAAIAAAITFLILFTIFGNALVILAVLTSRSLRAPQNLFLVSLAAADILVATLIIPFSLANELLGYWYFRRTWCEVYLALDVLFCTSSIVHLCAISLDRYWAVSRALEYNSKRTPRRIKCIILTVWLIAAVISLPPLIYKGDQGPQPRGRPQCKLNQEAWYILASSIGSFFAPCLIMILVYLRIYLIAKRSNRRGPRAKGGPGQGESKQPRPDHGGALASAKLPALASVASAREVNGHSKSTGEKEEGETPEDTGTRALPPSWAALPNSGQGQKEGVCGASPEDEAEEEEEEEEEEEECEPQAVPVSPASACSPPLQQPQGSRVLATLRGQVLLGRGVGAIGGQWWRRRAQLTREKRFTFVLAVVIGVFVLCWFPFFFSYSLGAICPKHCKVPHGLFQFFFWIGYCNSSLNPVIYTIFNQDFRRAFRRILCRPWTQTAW
Chain of ADR- Alpha 1B (P35368 whole entry): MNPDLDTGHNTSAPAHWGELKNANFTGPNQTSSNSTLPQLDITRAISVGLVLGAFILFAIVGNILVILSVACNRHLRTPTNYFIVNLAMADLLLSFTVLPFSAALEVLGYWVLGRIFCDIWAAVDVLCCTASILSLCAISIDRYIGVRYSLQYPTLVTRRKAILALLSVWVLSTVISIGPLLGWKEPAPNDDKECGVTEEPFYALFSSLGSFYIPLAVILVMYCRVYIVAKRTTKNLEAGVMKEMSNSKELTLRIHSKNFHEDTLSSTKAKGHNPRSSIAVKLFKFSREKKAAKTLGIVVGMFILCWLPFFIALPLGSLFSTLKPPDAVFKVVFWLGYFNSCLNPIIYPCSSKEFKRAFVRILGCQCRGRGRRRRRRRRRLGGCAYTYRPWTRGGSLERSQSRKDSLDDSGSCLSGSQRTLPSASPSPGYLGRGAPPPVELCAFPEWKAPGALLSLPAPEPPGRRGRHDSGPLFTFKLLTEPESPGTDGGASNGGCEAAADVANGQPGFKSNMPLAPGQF
Chain of 5-HT 1A (P08908 whole entry, species assumed): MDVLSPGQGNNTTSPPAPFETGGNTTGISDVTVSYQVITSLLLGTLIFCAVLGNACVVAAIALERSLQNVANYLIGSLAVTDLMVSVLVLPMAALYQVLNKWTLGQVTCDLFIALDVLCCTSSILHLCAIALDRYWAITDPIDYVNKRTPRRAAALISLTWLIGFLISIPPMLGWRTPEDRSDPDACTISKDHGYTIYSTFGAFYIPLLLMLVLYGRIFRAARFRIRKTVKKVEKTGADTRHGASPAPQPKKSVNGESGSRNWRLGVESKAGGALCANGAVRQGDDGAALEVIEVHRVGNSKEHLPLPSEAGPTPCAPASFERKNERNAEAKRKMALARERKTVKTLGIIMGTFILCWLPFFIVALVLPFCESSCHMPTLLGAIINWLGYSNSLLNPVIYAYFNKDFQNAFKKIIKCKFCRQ
Chain of 5-HT 2C (P28335 33-458, species assumed): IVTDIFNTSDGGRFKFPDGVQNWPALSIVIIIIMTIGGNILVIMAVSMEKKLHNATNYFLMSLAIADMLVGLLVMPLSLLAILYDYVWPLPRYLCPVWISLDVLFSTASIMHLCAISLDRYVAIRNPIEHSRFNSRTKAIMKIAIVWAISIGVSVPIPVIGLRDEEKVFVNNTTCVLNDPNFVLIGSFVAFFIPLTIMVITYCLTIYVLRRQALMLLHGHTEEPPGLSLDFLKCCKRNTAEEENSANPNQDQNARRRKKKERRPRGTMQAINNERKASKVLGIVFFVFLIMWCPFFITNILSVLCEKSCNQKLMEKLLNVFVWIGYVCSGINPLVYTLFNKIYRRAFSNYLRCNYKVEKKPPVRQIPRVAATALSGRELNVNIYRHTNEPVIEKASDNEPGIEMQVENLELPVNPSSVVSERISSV
Chain of 5-HT 2A (P28223 whole entry, species assumed): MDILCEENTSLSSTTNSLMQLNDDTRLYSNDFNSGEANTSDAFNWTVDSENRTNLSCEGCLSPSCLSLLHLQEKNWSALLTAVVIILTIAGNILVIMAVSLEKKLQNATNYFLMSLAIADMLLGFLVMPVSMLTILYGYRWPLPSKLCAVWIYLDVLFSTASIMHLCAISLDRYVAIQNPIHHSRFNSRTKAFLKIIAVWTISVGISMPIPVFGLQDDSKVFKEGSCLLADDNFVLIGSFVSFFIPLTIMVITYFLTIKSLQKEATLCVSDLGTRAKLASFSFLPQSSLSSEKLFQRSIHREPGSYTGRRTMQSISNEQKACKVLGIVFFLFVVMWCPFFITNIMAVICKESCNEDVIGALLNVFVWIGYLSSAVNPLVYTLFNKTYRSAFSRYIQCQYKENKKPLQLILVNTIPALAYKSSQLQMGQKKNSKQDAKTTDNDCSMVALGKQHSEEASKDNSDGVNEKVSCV
Chain of ADR - Alpha 1D (P25100 whole entry): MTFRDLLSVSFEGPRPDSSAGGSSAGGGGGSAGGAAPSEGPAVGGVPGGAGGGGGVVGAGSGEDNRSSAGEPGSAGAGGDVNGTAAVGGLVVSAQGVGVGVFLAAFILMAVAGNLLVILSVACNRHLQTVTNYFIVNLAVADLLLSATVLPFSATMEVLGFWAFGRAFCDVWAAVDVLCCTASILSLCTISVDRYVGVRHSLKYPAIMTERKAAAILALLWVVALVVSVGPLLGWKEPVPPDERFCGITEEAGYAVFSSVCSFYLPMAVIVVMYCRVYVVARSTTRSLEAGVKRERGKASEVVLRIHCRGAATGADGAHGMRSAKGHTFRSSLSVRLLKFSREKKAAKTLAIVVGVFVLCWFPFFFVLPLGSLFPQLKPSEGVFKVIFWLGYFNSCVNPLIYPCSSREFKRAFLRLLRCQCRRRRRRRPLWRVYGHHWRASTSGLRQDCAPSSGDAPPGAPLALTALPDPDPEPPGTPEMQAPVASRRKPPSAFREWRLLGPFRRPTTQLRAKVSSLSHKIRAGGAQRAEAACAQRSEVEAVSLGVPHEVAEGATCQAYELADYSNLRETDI

As to `COc1ccccc1OCCNC[C@H](O)COc1ccc(O)cc1.COc1ccccc1OCCNC[C@H](O)COc1ccc(O)cc1.O=C(O)/C=C/C(=O)O` [STD-101-D1, (S)-4-(2-hydroxy-3-((2-(2-methoxyphenoxy)ethyl)amino)propoxy)phenol hemifumarate], in data set [1], the inhibition at 10 µM was about 50%. Also, the Ki amounted to 47 nM on D3 dopamine receptor; 1240 nM at 5-HT 2A; 267 nM on ADR- Alpha 1B; 149 nM at 5-HT 1D; 337 nM on ADR - Alpha 2B; 25 nM at ADR - Alpha 1D. In addition, the inhibition constant Ki at 5-HT 1A was 11 nM; at 5-HT6 it was 1770 nM; at Sigma 2 receptor, 236 nM; at Sigma 1 receptor, 146 nM; on 5-HT 2C, 1150 nM. The “LPS-induced systemic (plasma) TNFα response” value in [2] (3 mg/kg pre-treatment 15 min prior to LPS) is on record as “markedly inhibited”. Further, the “CNS IL-1β (mRNA) after LPS” value in data set [2] (3 mg/kg pre-treatment) was “trend for attenuation”. Besides, in data set [2] (3 mg/kg pre-treatment), the “CNS IL-6 (mRNA) after LPS” value was “no effect”. For the same compound, in data set [2] (3 mg/kg pre-treatment), the “LPS-induced inflammatory TNFα response in the brain (mRNA)” value was “attenuated”. Besides, the concentration at 20 min turned out to be 288 nM in data set [3] (ip, 10 mg/kg intraperitoneally) and 2500 nM in [3] (iv, 10 mg/kg intravenously). Also, in data set [4] (10 mg/kg IP, systemic plasma), the “time post-dose at which Cmax was achieved” value stood at 90 min. Besides, the AUCinf in [4] (portal vein plasma) was determined as 362 ± 367 ng·h/mL; in [4] (systemic (jugular vein) plasma), 101 ± 29 ng·h/mL. For the same compound, the Cmax in data set [4] (portal vein plasma) is 946 ± 867 ng/mL; in data set [4] (systemic (jugular vein) plasma) it was 116 ± 78 ng/mL.
